Tests used:
rice, transplanted = assay: Test F flood (paddy) test; assay type: in vivo, Oryza sativa cv. Japonica—M202; conditions: 21 d, scale 0-100
From the text: (§1) Three plastic pots (ca. 16-cm diameter) per rate were partially filled with sterilized Tama silt loam soil comprising a 35:50:15 ratio of sand, silt and clay and 2.6% organic matter. Separate plantings for each of the three pots were as follows. Seeds from the U.S. of monochoria (Monochoria vaginalis), sedge, umbrella (small-flower umbrella sedge, Cyperus difformis), bulrush, […] bulrush, Scirpus juncoides), and […] (purple […] coccinea), were planted into one 16-cm pot for each rate. Seeds from the U.S. of flatsedge, rice (rice flatsedge, Cyperus iria), sprangletop, Brdd. (bearded sprangletop, Leptochloa fascicularis), one stand of 9 or 10 water seeded rice seedlings (Rice, W.S. Jap, Oryza sativa cv. 'Japonica-[…]' or Rice, W.S. Ind, 'Indica'), and two stands of 3 or 4 seedlings of rice, transplanted (transplanted rice, Oryza sativa cv. 'Japonica-[…]') were planted into one 16-cm pot for each rate. Seeds from the U.S. of barnyardgrass (Echinochloa crus-galli), […] (common […], Alisma plantago-aquatica), and watergrass, late (late watergrass, Echinochloa oryzicola) were planted into one 16-cm pot for each rate. Plantings were sequential so that crop and weed species were at the 2.0 to 2.5-leaf stage at time of treatment. Potted plants were grown in a greenhouse with day/night temperature settings of 30/27° C., and supplemental balanced lighting was provided to maintain a 16-h photoperiod. Test pots were maintained in the greenhouse until test completion. At time of treatment, test pots were flooded to 3 cm above the soil surface, treated by application of test compounds directly to the paddy water, and then maintained at that water depth for the duration of the test. Effects of treatments on rice and weeds were visually evaluated by comparison to untreated controls after 21 d. Plant response ratings, summarized in Table F, are based on a scale of 0 to 100 where 0 is no effect and 100 is complete control. A dash (-) response means no test result.

monochoria = assay: Test F flood (paddy) test; assay type: in vivo, Monochoria vaginalis; conditions: 21 d, scale 0-100
From the text: as §1

oat, wild = assay: Test D pre-/postemergence herbicide test; assay type: in vivo, Avena fatua; conditions: for Plant response rating: Postemergence, Oat, Wild, scale 0 to 100; for Plant response rating, Oat, Wild: Preemergence, scale 0 to 100 (0 no effect, 100 complete control)
From the text: Seeds of plant species selected from bluegrass (annual bluegrass, Poa annua), blackgrass (Alopecurus myosuroides), canarygrass (littleseed canarygrass, Phalaris minor), chickweed (common chickweed, Stellaria media), galium (catchweed bedstraw, Galium aparine), bromegrass, downy (downy bromegrass, Bromus tectorum), field poppy (Papaver rhoeas), field violet (Viola arvensis), foxtail, green (green foxtail, Setaria viridis), deadnettle (henbit deadnettle, Lamium amplexicaule), ryegrass, Italian (Italian ryegrass, Lolium multiflorum), kochia (Kochia scoparia), lambsquarters (Chenopodium album), oilseed rape (Brassica napus), pigweed (Amaranthus retroflexus), chamomile (scentless chamomile, Matricaria inodora), Russian thistle (Salsola kali), speedwell (bird's-eye speedwell, Veronica persica), barley, spring (spring barley, Hordeum vulgare), wheat, spring (spring wheat, Triticum aestivum), buckwheat, wild (wild buckwheat, Polygonum convolvulus), mustard, wild (wild mustard, Sinapis arvensis), oat, wild (wild oat, Avena fatua), radish, wild (wild radish, Raphanus raphanistrum), […]), barley, winter (winter barley, Hordeum vulgare), and wheat, winter (winter wheat, Triticum aestivum) were planted into a silt loam soil and treated preemergence with test chemicals formulated in a non-phytotoxic solvent mixture which included a surfactant. At the same time, these species were planted in pots containing Redi-Earth® planting medium (Scotts Company, 14111 Scottslawn Road, Marysville, Ohio 43041) comprising spaghnum peat moss, vermiculite, wetting agent and starter nutrients and treated with postemergence applications of the test chemicals formulated in the same manner. Plants ranged in height from 2 to 18 cm (1- to 4-leaf stage). Treated plants and controls were maintained in a controlled growth environment for 7 to 21 days after which time all species were compared to controls and visually evaluated. Plant response ratings, summarized in Table D, are based on a scale of 0 to 100 where 0 is no effect and 100 is complete control. A dash (-) response means no test result.

waterhemp = assay: Test E preemergence herbicide test; assay type: in vivo, Amaranthus rudis; parameters: key: 0 = no effect, 100 = complete control
From the text: (§2) Seeds of plant species selected from corn (Zea mays), soybean (Glycine max), velvetleaf (Abutilon theophrasti), lambsquarters (Chenopodium album), wild poinsettia (Euphorbia heterophylla), pigweed, palmer (palmer pigweed, Amaranthus palmeri), waterhemp (common waterhemp, Amaranthus rudis), surinam grass (Brachiaria decumbens), crabgrass, large (large crabgrass, Digitaria sanguinalis), crabgrass, Brazil (Brazilian crabgrass, Digitaria horizontalis), panicum, fall (fall panicum, Panicum dichotomiflorum), foxtail, giant (giant foxtail, Setaria faberii), foxtail, green (green foxtail, Setaria viridis), goosegrass (Eleusine indica), johnsongrass (Sorghum halepense), ragweed (common ragweed, Ambrosia elatior), barnyardgrass (Echinochloa crus-galli), sandbur (southern sandbur, Cenchrus echinatus), arrowleaf […] rhombifolia), ryegrass, Italian (Italian ryegrass, Lolium multiflorum), dayflower, VA (Virginia dayflower, Commelina virginica), field bindweed (Convolvulus arvensis), morningglory (Ipomoea coccinea), nightshade (eastern black nightshade, Solanum ptycanthum), kochia (Kochia scoparia), nutsedge, yellow (yellow nutsedge, Cyperus esculentus), cocklebur (common cocklebur, Xanthium strumarium), smartweed (ladysthumb smartweed, Polygonum Persicaria) and beggarticks (hairy beggarticks, Bidens pilosa), were planted into a silt loam soil and treated preemergence with test chemicals formulated in a non-phytotoxic solvent mixture which included a surfactant. Treated plants and controls were maintained in a greenhouse for 21 days, after which time all species were compared to controls and visually evaluated. Plant response ratings, summarized in Table E, are based on a scale of 0 to 100 where 0 is no effect and 100 is complete control. A dash (-) response means no test result.

dayflower, VA = assay: Test E preemergence herbicide test; assay type: in vivo, Commelina virginica; parameters: key: 0 = no effect, 100 = complete control
From the text: as §2

corn = assay: Test E preemergence herbicide test; assay type: in vivo, Zea mays; parameters: key: 0 = no effect, 100 = complete control
From the text: as §2

velvetleaf = assay: Test E preemergence herbicide test; assay type: in vivo, Abutilon theophrasti; parameters: key: 0 = no effect, 100 = complete control
From the text: as §2

## O=C1NCC(c2cccc(C(F)(F)F)c2)C1C(=O)Nc1ccccc1F (racemic) [Compound 3]
rice, transplanted; 250 g ai/ha
  Plant response rating, Rice, Transplanted: 0
rice, transplanted; 500 g ai/ha
  Plant response rating, Rice, Transplanted: 0
monochoria; 250 g ai/ha
  Plant response rating, Monochoria: 90
monochoria; 500 g ai/ha
  Plant response rating, Monochoria: 100

## O=C1NCC(c2ccc(C(F)(F)F)c(F)c2)C1C(=O)Nc1cccc(F)c1F (racemic) [Compound 247]
rice, transplanted; 125 g ai/ha
  Plant response rating, Rice, Transplanted: 0
rice, transplanted; 250 g ai/ha
  Plant response rating, Rice, Transplanted: 0
rice, transplanted; 500 g ai/ha
  Plant response rating, Rice, Transplanted: 0
rice, transplanted; 1000 g ai/ha
  Plant response rating, Rice, Transplanted: 10
rice, transplanted; 2000 g ai/ha
  Plant response rating, Rice, Transplanted: 15
monochoria; 125 g ai/ha
  Plant response rating, Monochoria: 70
monochoria; 250 g ai/ha
  Plant response rating, Monochoria: 70
monochoria; 500 g ai/ha
  Plant response rating, Monochoria: 75
monochoria; 1000 g ai/ha
  Plant response rating, Monochoria: 75
monochoria; 2000 g ai/ha
  Plant response rating, Monochoria: 75

## O=C1NCC(c2ccc(F)c(F)c2)C1C(=O)Nc1cccc(F)c1 (racemic) [Compound 12]
oat, wild; 16 g ai/ha
  Plant response rating: 0
  Plant response rating, Oat, Wild: 0
oat, wild; 31 g ai/ha
  Plant response rating: 0
  Plant response rating, Oat, Wild: 0
oat, wild; 62 g ai/ha
  Plant response rating: 10
  Plant response rating, Oat, Wild: 0
oat, wild; 125 g ai/ha
  Plant response rating: 15
  Plant response rating, Oat, Wild: 0
oat, wild; 250 g ai/ha
  Plant response rating: 20
  Plant response rating, Oat, Wild: 0

## O=C1NCC(c2cccc(Br)c2)C1C(=O)Nc1ccccc1F (stereo not drawn) [Compound 66]
waterhemp; 16 g ai/ha
  Plant response rating, Waterhemp: 0
waterhemp; 31 g ai/ha
  Plant response rating, Waterhemp: 0
waterhemp; 62 g ai/ha
  Plant response rating, Waterhemp: 0
waterhemp; 125 g ai/ha
  Plant response rating, Waterhemp: 0
waterhemp; 250 g ai/ha
  Plant response rating, Waterhemp: 0
dayflower, VA; 16 g ai/ha
  Plant response rating, Dayflower, VA: 0
dayflower, VA; 31 g ai/ha
  Plant response rating, Dayflower, VA: 0
dayflower, VA; 62 g ai/ha
  Plant response rating, Dayflower, VA: 0
dayflower, VA; 125 g ai/ha
  Plant response rating, Dayflower, VA: 0
dayflower, VA; 250 g ai/ha
  Plant response rating, Dayflower, VA: 0
corn; 16 g ai/ha
  Plant response rating, Corn: 0
corn; 31 g ai/ha
  Plant response rating, Corn: 0
corn; 62 g ai/ha
  Plant response rating, Corn: 0
corn; 125 g ai/ha
  Plant response rating, Corn: 0
corn; 250 g ai/ha
  Plant response rating, Corn: 0
velvetleaf; 16 g ai/ha
  Plant response rating, Velvetleaf: 0
velvetleaf; 31 g ai/ha
  Plant response rating, Velvetleaf: 0
velvetleaf; 62 g ai/ha
  Plant response rating, Velvetleaf: 0
velvetleaf; 125 g ai/ha
  Plant response rating, Velvetleaf: 0
velvetleaf; 250 g ai/ha
  Plant response rating, Velvetleaf: 0

## O=C1NCC(c2cccc(C(F)(F)F)c2)C1C(=O)Nc1ccc(F)cc1F (racemic) [Compound 207]
rice, transplanted; 125 g ai/ha
  Plant response rating, Rice, Transplanted: 0
rice, transplanted; 250 g ai/ha
  Plant response rating, Rice, Transplanted: 0
rice, transplanted; 500 g ai/ha
  Plant response rating, Rice, Transplanted: 0
oat, wild; 31 g ai/ha
  Plant response rating, Oat, Wild: 0
oat, wild; 62 g ai/ha
  Plant response rating, Oat, Wild: 0
oat, wild; 125 g ai/ha
  Plant response rating, Oat, Wild: 5
oat, wild; 250 g ai/ha
  Plant response rating, Oat, Wild: 20
monochoria; 125 g ai/ha
  Plant response rating, Monochoria: 65
monochoria; 250 g ai/ha
  Plant response rating, Monochoria: 100
monochoria; 500 g ai/ha
  Plant response rating, Monochoria: 100

Reference: patent publication US10294202B2, “Pyrrolidinones as herbicides” (FMC Corporation, priority 2013, dated 2019)
